Measured values reported in PubChem BioAssay AID2060506 (Molecular Pharmacology Branch, DTP, NCI, 2025).

Test system: 598228-144-R-J1-PDC complex spheroid viability
Assay: Anticancer human tumor 598228-144-R-J1-PDC patient-derived serous endometrial adenocarcinoma cell line growth inhibition [GQUAD]
Conditions: for IC50: curve of first compound; for viability, T/C: stronger effect = lower value
Procedure, shortened: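 Tumor cells were grown as complex spheroids with HUVEC endothelial cells and mesenchymal stem cells as stroma. G-quadruplex stabilizers were combined with targeted agents over half-log dilutions from near the clinical Cmax, or from 10 microM.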

[1] = second compound 0.0316 µM, first compound 0.0316 µM
[2] = second compound 0.0316 µM, first compound 0.1 µM
[3] = second compound 0.0316 µM, first compound 0.316 µM
[4] = second compound 0.0316 µM, first compound 1 µM
[5] = second compound 0.0316 µM, first compound 3.16 µM
[6] = second compound 0.0316 µM, first compound 10 µM
[7] = second compound 0.1 µM, first compound 0.0316 µM
[8] = second compound 0.1 µM, first compound 0.1 µM
[9] = second compound 0.1 µM, first compound 0.316 µM
[10] = second compound 0.1 µM, first compound 1 µM
[11] = second compound 0.1 µM, first compound 3.16 µM
[12] = second compound 0.1 µM, first compound 10 µM
[13] = second compound 0.316 µM, first compound 0.0316 µM
[14] = second compound 0.316 µM, first compound 0.1 µM
[15] = second compound 0.316 µM, first compound 0.316 µM
[16] = second compound 0.316 µM, first compound 1 µM
[17] = second compound 0.316 µM, first compound 3.16 µM
[18] = second compound 0.316 µM, first compound 10 µM
[19] = second compound 1 µM, first compound 0.0316 µM
[20] = second compound 1 µM, first compound 0.1 µM
[21] = second compound 1 µM, first compound 0.316 µM
[22] = second compound 1 µM, first compound 1 µM
[23] = second compound 1 µM, first compound 3.16 µM
[24] = second compound 1 µM, first compound 10 µM
[25] = second compound 3.16 µM, first compound 0.0316 µM
[26] = second compound 3.16 µM, first compound 0.1 µM
[27] = second compound 3.16 µM, first compound 0.316 µM
[28] = second compound 3.16 µM, first compound 1 µM
[29] = second compound 3.16 µM, first compound 3.16 µM
[30] = second compound 3.16 µM, first compound 10 µM
[31] = second compound 10 µM, first compound 0.0316 µM
[32] = second compound 10 µM, first compound 0.1 µM
[33] = second compound 10 µM, first compound 0.316 µM
[34] = second compound 10 µM, first compound 1 µM
[35] = second compound 10 µM, first compound 3.16 µM
[36] = second compound 10 µM, first compound 10 µM
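Note: spheroids exposed to the agents for one week before reading.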
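Throughout, for viability, T/C: percent of vehicle DMSO control viability so 100% = untreated growth.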

In the case of `C=CCn1c(=O)c2cnc(Nc3ccc(N4CCN(C)CC4)cc3)nc2n1-c1cccc(C(C)(C)O)n1` + CN(C)c1ccc(Nc2c3ccc(NC(=O)CCN4CCCC4)cc3nc3cc(NC(=O)CCN4CCCC4)ccc23)cc1, the IC50 (second compound 0.0316 µM) is reported as 913 nM, the IC50 (second compound 0.1 µM) is reported as 1410 nM and the IC50 (second compound 0.316 µM) is reported as greater than 10000 nM. It also gave an IC50 (second compound 1 µM) of 2290 nM, an IC50 (second compound 3.16 µM) of 611 nM and an IC50 (second compound 10 µM) of 233 nM. For the same molecule, the viability, T/C [1] was 85.4%, the viability, T/C [2] was 99.5% and the viability, T/C [3] was 65%. For the same molecule, the viability, T/C [4] was 44.2%, the viability, T/C [5] was 53.7% and the viability, T/C [6] was 48.2%. It also gave a viability, T/C [7] of 109%, a viability, T/C [8] of 97% and a viability, T/C [9] of 74.4%. For the same molecule, the viability, T/C [10] was 47%, the viability, T/C [11] was 50.9% and the viability, T/C [12] was 45.3%. It also gave a viability, T/C [13] of 107%, a viability, T/C [14] of 83.6% and a viability, T/C [15] of 54%. The viability, T/C [16] was 52.5%, the viability, T/C [17] was 51.7% and the viability, T/C [18] was 52%. It also gave a viability, T/C [19] of 103%, a viability, T/C [20] of 79.3% and a viability, T/C [21] of 67.9%. It also gave a viability, T/C [22] of 50.8%, a viability, T/C [23] of 47.6% and a viability, T/C [24] of 47.7%. It also gave a viability, T/C [25] of 131%, a viability, T/C [26] of 88.3% and a viability, T/C [27] of 63.3%. For the same molecule, the viability, T/C [28] was 32.1%, the viability, T/C [29] was 46.1% and the viability, T/C [30] was 21.9%. For the same molecule, the viability, T/C [31] was 88.6%, the viability, T/C [32] was 72.8% and the viability, T/C [33] was 39.8%. It also gave a viability, T/C [34] of 21.7%, a viability, T/C [35] of 8.8% and a viability, T/C [36] of 4.75%.
`CC(=O)O[C@H]1C(=O)[C@@]2(C)[C@H]([C@H](OC(=O)c3ccccc3)[C@]3(O)C[C@H](OC(=O)[C@H](O)[C@@H](NC(=O)c4ccccc4)c4ccccc4)C(C)=C1C3(C)C)[C@]1(OC(C)=O)CO[C@@H]1C[C@@H]2O` + CN(C)c1ccc(Nc2c3ccc(NC(=O)CCN4CCCC4)cc3nc3cc(NC(=O)CCN4CCCC4)ccc23)cc1 gave an IC50 (second compound 0.0316 µM) of less than 31.6 nM, an IC50 (second compound 0.1 µM) of less than 31.6 nM and an IC50 (second compound 0.316 µM) of less than 31.6 nM. It also gave an IC50 (second compound 1 µM) of less than 31.6 nM, an IC50 (second compound 3.16 µM) of less than 31.6 nM and an IC50 (second compound 10 µM) of less than 31.6 nM. For the same molecule, the viability, T/C [1] was 49.4%, the viability, T/C [2] was 43.3% and the viability, T/C [3] was 44.2%. It also gave a viability, T/C [4] of 32.9%, a viability, T/C [5] of 37.3% and a viability, T/C [6] of 53.6%. The viability, T/C [7] was 47.6%, the viability, T/C [8] was 43.1% and the viability, T/C [9] was 35%. It also gave a viability, T/C [10] of 38.2%, a viability, T/C [11] of 33.7% and a viability, T/C [12] of 35.4%. It also gave a viability, T/C [13] of 47.6%, a viability, T/C [14] of 40.9% and a viability, T/C [15] of 40.7%. The viability, T/C [16] was 34.6%, the viability, T/C [17] was 47% and the viability, T/C [18] was 49.4%. For the same molecule, the viability, T/C [19] was 51.8%, the viability, T/C [20] was 38.7% and the viability, T/C [21] was 41.9%. The viability, T/C [22] was 42.1%, the viability, T/C [23] was 45.4% and the viability, T/C [24] was 37%. The viability, T/C [25] was 51.6%, the viability, T/C [26] was 34.6% and the viability, T/C [27] was 41.6%. For the same molecule, the viability, T/C [28] was 38.9%, the viability, T/C [29] was 33.1% and the viability, T/C [30] was 38.1%. It also gave a viability, T/C [31] of 29.1%, a viability, T/C [32] of 29.6% and a viability, T/C [33] of 29.1%. The viability, T/C [34] was 25.2%, the viability, T/C [35] was 19.4% and the viability, T/C [36] was 30.9%.
For `CC(C)(O)C1CCC(Nc2ccc3ncc(-c4cccc(C(F)(F)F)c4)n3n2)CC1` (stereo unspecified) + CN(C)c1ccc(Nc2c3ccc(NC(=O)CCN4CCCC4)cc3nc3cc(NC(=O)CCN4CCCC4)ccc23)cc1, the IC50 (second compound 0.0316 µM) was 1860 nM, the IC50 (second compound 0.1 µM) was 1910 nM and the IC50 (second compound 0.316 µM) was 2100 nM. For the same molecule, the IC50 (second compound 1 µM) was 1890 nM, the IC50 (second compound 3.16 µM) was 1970 nM and the IC50 (second compound 10 µM) was 1810 nM. It also gave a viability, T/C [1] of 112%, a viability, T/C [2] of 95.7% and a viability, T/C [3] of 79.2%. For the same molecule, the viability, T/C [4] was 78.5%, the viability, T/C [5] was 25.1% and the viability, T/C [6] was 27.3%. The viability, T/C [7] was 96.3%, the viability, T/C [8] was 99% and the viability, T/C [9] was 112%. It also gave a viability, T/C [10] of 81.4%, a viability, T/C [11] of 26.6% and a viability, T/C [12] of 24.1%. The viability, T/C [13] was 98.9%, the viability, T/C [14] was 87.8% and the viability, T/C [15] was 112%. The viability, T/C [16] was 85.3%, the viability, T/C [17] was 31% and the viability, T/C [18] was 24.1%. It also gave a viability, T/C [19] of 101%, a viability, T/C [20] of 87.9% and a viability, T/C [21] of 128%. For the same molecule, the viability, T/C [22] was 79%, the viability, T/C [23] was 29.5% and the viability, T/C [24] was 23.4%. For the same molecule, the viability, T/C [25] was 110%, the viability, T/C [26] was 104% and the viability, T/C [27] was 107%. For the same molecule, the viability, T/C [28] was 89.1%, the viability, T/C [29] was 22.6% and the viability, T/C [30] was 21.8%. For the same molecule, the viability, T/C [31] was 93.3%, the viability, T/C [32] was 75.3% and the viability, T/C [33] was 81.7%. It also gave a viability, T/C [34] of 76.6%, a viability, T/C [35] of 24.8% and a viability, T/C [36] of 16.6%.
